Test results published in US7253177B2, “Synthesis and antimalarial activity of pyrrolo[3,2-f]quinazoline-1,3-diamine derivatives” (United States of America as Represented by the Secretary of …, priority 2004, dated 2007).
Values after ≈ are worked out from the molar mass of the structure shown.

Columns and labels:
[1] = Toxicity study in Aotus monkey; type: in vivo; settings: for CBC parameters / body weight change / adverse effects (anorexia, vomiting, diarrhea, behavior): single oral 3 mg/kg; for adverse effects (anorexia, vomiting, diarrhea, behavior): 28 day observation period; for behavior, weight or blood chemistry changes: single oral dose 3 mg/kg
Experimental: (e). Toxicity Study in Aotus monkey: Protocol: Two malaria double cured Aotus weighing 1027-695 grams respectively received single dose of 3 mg/kg orally of the two compounds 2b and 3e. The monkeys were weighed and pre-bleed for CBC and Chemistry (ALT, BUN, Creatinine) determination, and again three, seven and 15 days post treatment. Signs of toxicity such as anorexia, vomiting, diarrhea or behavior changes were recorded. […] (f). Antimalarial Activity against P. falciparum in Aotus monkey: Protocol: Six (6) malaria naive Aotus lemurinus lemurinus (weigh 787-978 grms) were divided into two groups of two Aotus each plus two controls (MN13177 male and MN 13153 male) and infected with 5×10^6 P. falciparum FVO malaria parasites with 1 ml of an appropriate dilution in RPMI media intravenously on the saphenous vein. When their parasitemia reached 5×10^4 parasites/ul, treatment was started. Giemsa-stained thick blood smears were prepared daily with a prick in the ear marginal vein and parasites enumerated by the Earle and Perez method. Group 1 Aotus received 3e at 1 mg/kg once a day×three days. Group 2 Aotus received 2b at 1 mg/kg once a day×three days. The monkeys were weight and pre-bled for CBC and Chemistry (ALT, BUN, Creatinine) determination, and on day 4 post-treatmetne (PT). Bleedings for Pk determinations were carried out on day 1 PT at time 0, 1 hr, 7:30 hr and 24 hr PT. Group 1 (receiving 3e) animals cleared the parasitemias on day 3 post treatment (PT) and remained negative up to 100 days PT. In group 2 (receiving 2b), one animal cleared on day 3 PT and the other one on day 4 PT remaining negative up to 100 days PT. […] (g). Antimalarial Activity against P. vivax in Aotus monkey: Protocol: Fourteen (14) P. falciparum cured Aotus l. lemurinus monkeys (male and female) (weight 700-925 grms) were infected intravenously with 5×10^6 parasites of the P. vivax AMRU-1 strain diluted in RPMI media obtained from a donor and divided into two larger groups of 6 monkeys each (Group I and Group II) (2 monkeys per dose level), that received 3e and 6 monkeys (2 monkeys per dose level) that received 2b daily at 0.5, 1.0 and 3 mg/kg/day for a total of 3 days. Two monkeys were left has untreated controls. Treatment started when parasitemia reached 5,000 parasites×cc/mm on day 6 PI. Daily food intake was documented. Daily Giemsa-stained thick blood smears were prepared from a prick in the marginal ear vein and parasites enumerated by the Earle and Perez method. The animals were weighed at weekly intervals. Blood samples for Pk determination were collected at the following time points as follows: Day 0: CBC and chemistry panel (ALT. Creatinine and BUN); Day 4: CBC and chemistry Panel. CBC and chemistry panels were done the day prior to first dose and 24 hours after last dose and at weekly intervals thereafter. […] The other monkeys received 1 and 3 mg/kg of 3e remained negative until day 100 PT. In Group II, all monkeys except for one that received 3 mg/kg of 2b failed treatment and were retreated on day 3 PT with 3e at either 0.25, 0.5 or 1 mg/kg for three days. In the monkeys that received re-treatment at 0.25 mg/kg, one cleared on day 4 PT but needed to be treated with Mefloquine on day 8 PT due to a low platelet count. The other animals that had not been cleared by day 6 PT were treated with Mefloquine. […] P. vivax is known to be very drug resistant to antifolates. (h). Presumptive Causal Prophylactic Test against P. cynomolgi in Rhesus monkey: Protocol: […]

[2] = tested on: Plasmodium falciparum D-6 clone (CDC Sierra Leone I); experiment: In vitro antimalarial study, [3H]hypoxanthine uptake, D-6 clone; type: cell-based
Experimental: B. Antimalarial Activities: (a). In Vitro Antimalarial Studies. The in vitro assays were conducted by using a modification of the semiautomated microdilution technique of Desjardins et al and Chulay et al.. Four P. falciparum malaria parasite clones, from CDC Indochina III (W-2), CDC Sierra Leone I (D-6), Southeast Asia Isolates (TM91C235) and RCS (Isolates from Brazil) were utilized in susceptibility testing. They were derived by direct visualization and micromanipulation from patient isolates. The W-2 clone is susceptible to mefloquine but resistant to chloroquine, sulfadoxine, pyrimethamine, and quinine, whereas the D-6 clone is naturally resistant to mefloquine but susceptible to chloroquine, sulfadoxine, pyrimethamine and quinine. Test compounds were initially dissolved in DMSO and diluted 400 fold in RPMI 1640 culture medium supplemented with 25 mM Hepes, 32 mM NaHCO3 and 10% Albumax I (Gibco BRL, Grand Island, N.Y.). These solutions were subsequently serially diluted two-fold with a Biomek 1000 (Beckman, Fullerton, Calif.) over 11 different concentrations. The parasites were exposed to serial dilutions of each compound for 48 hrs and incubated at 37° C. with 5% O2, 5% CO2 and 90% N2 prior to the addition of [^3H]hypoxanthine. After a further incubation of 18 hrs, parasite DNA was harvested from each microtiter well using Packard Filtermate 196 Harvester (Meriden, Conn.) onto glass filters. Uptake of [^3H]hypoxanthine was measured with a Packard Topcount Scintillation. Concentration-response data were analyzed by a non-linear regression logistic dose response model and the IC50 values (50% inhibitory concentrations) for each compound were calculated. (Table 3). (b). In Vivo Antimalarial Studies against P. berghei in mice: The in vivo efficacy of the artelinic acid analogs were determined in a modified Thompson test. This test measures the survivability of mice and parasitemia clearance following administration of drug on days 3-5 post infection. In brief, 5×10^6 P. berghei-infected erythrocytes (KBG-173 strain) were inoculated intraperitoneally to female mice that weighed 24-30 g. By day three post-infection, parasitemia ranged from 1.0-3.7%. Each drug, dissolved in 5% sodium bicarbonate, was administered PO twice daily from day 3-5 post-infection. Total doses for each drug ranged from 1.5-384 mg/kg with 8 mice included in each dosage group. The percent suppression of parasitemia in the treated mice compared to the untreated controls was determined for each test compound; the SD-50 (fifty percent suppression dose) and SD-90 were determined from a non-linear regression logistic dose response fit at day 6 parasitemia data. Survival of mice to day 60 post-infection was considered a cure (C). Compounds were considered active (A) when the survival time of the treated mice was greater than twice the control mice, i.e., 12-14 day (Table 4-5). (c). Sporozoite Induced Test Each compound is ground with a mortar & pestle and suspended in 0.5% hydroxyethylcellulose—0.1% Tween 80 for compounds to be administered PO and those given SC are suspended in peanut oil. Each compound is prepared at 3 different dose levels as requested by WRAIR. Compounds are administered either PO or SC to mice once 4 hr before inoculation of sporozoites. Four-week-old male CD-1 mice, purchased from Charles River and weighing 16-17 g, are placed 5 per cage and allowed to acclimate for 4 days before being treated and then inoculated with sporozoites. They are fed food and water ad-lib and maintained at 76° F. with 12 hr light and 12 hr darkness. The cages and water bottles are changed biweekly. The mice are weighed on Days 0, 3 and 6 then biweekly when blood films are taken. Plasmodium yoelii (17×) is used to infect mice that will be used to infect the mosquitoes. Mice are given a single dose of test compound 4 hr before being inoculated intraperitoneally with 2.5×10^5 sporozoites of Plasmodium yoelii on Day 0. […]

Structure (SMILES) | CBC parameters [1] | body weight change [1] | adverse effects (anorexia, vomiting, diarrhea, behavior) [1] | behavior, weight or blood chemistry changes [1] | IC50 D-6 ([2]; P. falciparum D-6 clone) [ng/mL] | IC50 ([2]; Plasmodium falciparum, read-out: IC50 D-6) [ng/mL]
CCOC(=O)Nc1nc(NC(=O)OCC)c2c(ccc3c2ccn3Cc2ccccc2C(F)(F)F)n1 [Compound 2b] | remained within normal ranges | No significant changes in body weight | No adverse effects | no behavior, weight or blood chemistry changes | 7.9727 (≈ 15.9 nM) | –
CC(=O)N(C(C)=O)c1nc(N(C(C)=O)C(C)=O)c2c(ccc3c2ccn3Cc2ccccc2C(F)(F)F)n1 [Compound 3e, 1,3-Bis(diacetylamino)-7-(2-trifluoromethyl)benzyl-7H-pyrrolo[3,2-f]quinazoline] | remained within normal ranges | No significant changes in body weight | No adverse effects | no behavior, weight or blood chemistry changes | – | 0.0236 (≈ 0.0449 nM)
